The numbers were not newly measured in US10736322B2, “Aqueous concentrated herbicidal compositions containing glyphosate salts and dicamba salts” (priority 2012, dated 2020), which cites them from elsewhere.

The conditions of the series: 25° C.

`O=C(O)CNCP(=O)(O)O` [Glyphosate acid, N-(phosphonomethyl)glycine]: the solubility in water is reported as 1.16 wt. %.
